# Reference: US11690854B2, “Methods of treating heavy menstrual bleeding” (priority 2018, dated 2023)
# Columns and labels:
# women with endometriosis = assay: Six Phase 2 studies of elagolix for endometriosis associated pain; assay type: in vivo, human
# Method: Efficacy was assessed for dysmenorrhea (DYS), nonmenstrual pelvic pain (NMPP), dyspareunia, and general pelvic pain with a range of instruments. Additional efficacy assessments included quality of life and the use of analgesics for control of endometriosis pain. Across these Phase 2 studies, the enrollment criteria were similar and were intended to select premenopausal women aged 18 to 49 years of age with endometriosis confirmed by visual inspection (laparoscopy or laparotomy within 5 to 8 years of screening) who experienced moderate to severe endometriosis-associated pain. Women were included if they had regular menstrual cycles and no significant uterine fibroids or pelvic lesions. Total daily doses of elagolix ranging from 75 to 250 mg were evaluated across a range of pain instruments measuring […], or general pelvic pain (including patient global impression of change), during 12 or 24 weeks of treatment. […] Overall, 475 women have received elagolix for at least 12 weeks and 278 women for a period of at least 24 weeks. The majority of women were Caucasian (78.9% to 100%), while approximately 7% were black and approximately 4.5% were Hispanic. The mean age across these six Phase 2 studies was 31 to 33 years (range 18 to 48 years) and mean body mass index (BMI) of 23 to 28 kg/m. […] In addition, the majority were receiving analgesic medications (nonsteroidal anti-inflammatory drugs, opioids, and/or other) prior to study enrollment
# healthy women = assay: 3-menstrual cycle study in healthy women; assay type: in vivo, human
# [1] = Binding to human plasma proteins; assay type: in vitro ADME; conditions: read-out: % Bound to human plasma proteins (converted)
# [2] = biological target: efflux transporter P-glycoprotein (P-gp) (Homo sapiens, UniProt P08183); assay: Drug interaction potential: P-gp
# Sequence of efflux transporter P-glycoprotein (P-gp) (P08183 whole entry): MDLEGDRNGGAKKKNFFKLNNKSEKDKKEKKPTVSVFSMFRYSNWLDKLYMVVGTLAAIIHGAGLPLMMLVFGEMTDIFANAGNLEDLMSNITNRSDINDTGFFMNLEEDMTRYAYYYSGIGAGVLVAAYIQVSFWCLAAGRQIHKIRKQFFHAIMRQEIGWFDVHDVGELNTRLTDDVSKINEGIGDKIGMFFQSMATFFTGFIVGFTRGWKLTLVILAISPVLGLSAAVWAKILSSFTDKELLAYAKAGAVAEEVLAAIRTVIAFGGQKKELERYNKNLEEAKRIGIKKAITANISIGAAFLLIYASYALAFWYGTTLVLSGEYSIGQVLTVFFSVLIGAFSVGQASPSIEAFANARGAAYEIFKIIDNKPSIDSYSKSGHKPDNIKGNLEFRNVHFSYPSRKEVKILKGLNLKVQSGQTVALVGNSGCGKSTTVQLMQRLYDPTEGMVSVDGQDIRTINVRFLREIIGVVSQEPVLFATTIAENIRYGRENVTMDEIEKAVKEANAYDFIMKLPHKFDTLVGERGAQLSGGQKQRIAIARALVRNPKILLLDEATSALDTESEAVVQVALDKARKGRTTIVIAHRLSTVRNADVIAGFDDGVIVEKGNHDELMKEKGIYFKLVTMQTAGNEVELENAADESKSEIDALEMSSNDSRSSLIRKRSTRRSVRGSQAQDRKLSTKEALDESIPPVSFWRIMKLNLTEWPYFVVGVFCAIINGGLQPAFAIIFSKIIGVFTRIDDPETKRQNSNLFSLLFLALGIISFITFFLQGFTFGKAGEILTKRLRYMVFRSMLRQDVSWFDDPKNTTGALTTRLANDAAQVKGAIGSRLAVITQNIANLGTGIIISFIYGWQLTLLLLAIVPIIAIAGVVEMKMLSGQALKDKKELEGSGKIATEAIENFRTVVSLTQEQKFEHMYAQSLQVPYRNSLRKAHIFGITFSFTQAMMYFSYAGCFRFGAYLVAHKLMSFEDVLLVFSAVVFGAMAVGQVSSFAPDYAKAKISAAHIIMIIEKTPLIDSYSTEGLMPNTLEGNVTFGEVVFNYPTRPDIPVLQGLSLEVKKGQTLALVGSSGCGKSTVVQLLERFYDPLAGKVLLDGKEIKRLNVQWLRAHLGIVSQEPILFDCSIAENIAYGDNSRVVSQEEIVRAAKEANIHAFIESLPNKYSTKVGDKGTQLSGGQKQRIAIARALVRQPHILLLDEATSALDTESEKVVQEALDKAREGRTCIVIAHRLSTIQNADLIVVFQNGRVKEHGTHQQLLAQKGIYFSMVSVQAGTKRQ
# Method: Elagolix is an inhibitor of efflux transporter P-glycoprotein (P-gp) at 200 mg BID or higher, such as 300 mg BID or 400 mg QD or 600 mg QD. Co-administration with ELAGOLIX 200 mg BID may increase plasma concentration of drugs that are substrates of P-gp.
# Elagolix is a substrate of CYP3A, P-gp, and organic anion transporting polypeptide (OATP)1B1. Clinically meaningful interactions are not expected when ELAGOLIX is co-administered with drugs that inhibit CYP3A or P-gp.
# mice = assay: 2-year carcinogenicity study in mice; assay type: in vivo; conditions: mouse; any dose
# rats = assay: Fertility study and repeat-dose study in rats; assay type: in vivo
# From the text: Based on pharmacologic actions of elagolix in humans a reversible effect on fertility may be expected in women.
# [3] = tested on: premenopausal women with endometriosis with associated pain; assay: Phase 3 Studies EM-I and EM-II together, with extension studies; assay type: in vivo, human; conditions: for Depressed Mood, depression, depressive symptoms and or tearfulness, %: placebo 2.3; for Mood altered, mood swings, %: placebo 3.4; for Mean Intensity score (1 = spotting to 4 = heavy) / Mean bleeding/spotting days in prior 28 days: Month 3; for Mean Intensity score (1 = spotting to 4 = heavy): placebo 2.6 to 2.4; for Mean bleeding/spotting days in prior 28 days: placebo 5.4 to 4.6; for Percentage of patients with adverse reaction: Anxiety / Percentage of patients with adverse reaction: Arthralgia / Percentage of patients with adverse reaction: Insomnia: placebo 3; for Percentage of patients with adverse reaction: Nasopharyngitis / Percentage of patients with adverse reaction: Sinusitis: placebo 4; for Percentage of patients with adverse reaction: Upper Respiratory Tract Infection: placebo 5; for Percentage of patients with adverse reaction: Hot Flush: placebo 9; for Percentage of patients with adverse reaction: Headache: placebo 12; for Percentage of patients with adverse reaction: Nausea: placebo 13; for Percentage of patients with adverse reaction: Amenorrhoea: placebo <1; for Mean increase from pretreatment baseline in HDL-C / Mean increase from pretreatment baseline in LDL-C / Mean increase from pretreatment baseline in triglycerides: 6-month treatment; for Patients who discontinued therapy due to adverse reactions: EM-I and EM-II; for Patients with Z-score below the normal lower bound of −2.0: following 12 months of treatment; for Patients with asymptomatic elevations of serum ALT to at least 3-times the upper limit of the reference range: placebo 1/696, 0.1%
# From the text: Each placebo-controlled study assessed the reduction in endometriosis-associated pain over 6 months of treatment. More than 75 percent of women who completed Study EM-I and EM-II enrolled in the extension studies for an additional 6 month treatment period. Subjects were followed for up to 12 months post-treatment. Women in these studies also provided a daily self-assessment of their endometriosis pain using the Numeric Rating Scale (NRS), on a scale ranging from 0 (no pain) to 10 (worst pain ever). […] The population age range was 18-49 years old. Women who completed six months of treatment and met eligibility criteria continued treatment in two blinded six-month extension studies, for a total treatment duration of up to 12 months. In the placebo-controlled and extension clinical studies, BMD was measured by DXA. Changes observed in BMD at other anatomical sites (femoral neck, total hip) were generally smaller than lumbar spine.
smiles,measurement,setting,value
"COc1cccc(-c2c(C)n(Cc3c(F)cccc3C(F)(F)F)c(=O)n(C[C@H](NCCCC(=O)O)c3ccccc3)c2=O)c1F [Elagolix, 4-((R)-2-[5-(2-fluoro-3-methoxy-phenyl)-3-(2-fluoro-6-trifluoromethyl-benzyl)-4-methyl-2,6-dioxo-3,6-dihydro-2H-pyrimidin-1-yl]-1-phenyl-ethylamino)-butyric acid]",Safety and tolerability,women with endometriosis; all daily doses (100 to 250 mg),safe and well tolerated
same,Incidence of AEs that led to discontinuations,women with endometriosis; completed Phase 2 studies,4.8%
same,Effect on DYS and NMPP versus DMPA-SC,women with endometriosis; daily dose of 150 mg,comparable effect to subcutaneous depot medroxyprogesterone acetate (DMPA-SC)
same,Effect versus leuprorelin,women with endometriosis; daily doses of 150 mg and 250 mg,less effect compared with leuprorelin
same,Reduction in endometriosis-associated pain,"women with endometriosis; daily doses of 100 to 250 mg, 12 or 24 weeks",clinically meaningful reductions in endometriosis-associated pain
same,Days of bleeding per month (eDiary),women with endometriosis; versus placebo,fewer days of bleeding per month compared with patients who received placebo
same,Ovulation rate,healthy women; 150 mg QD,approximately 50%
same,Mean endometrial thickness (transvaginal ultrasound),"healthy women; 150 mg QD and 200 mg BID, compared to pretreatment values",dose dependent decrease in the mean endometrial thickness
same,Ovulation rate,healthy women; 200 mg BID,~32%
same,fraction unbound,[1],0.2
same,Substrate of P-gp,[2],substrate
same,Inhibition of P-gp,"[2]; at 200 mg BID or higher, such as 300 mg BID or 400 mg QD or 600 mg QD",inhibitor
same,Tumors in 2-year carcinogenicity study,mice,no increase in tumors
same,Effect in fertility study,"rats; doses 50, 150, 300 mg/kg/day",no effect
same,Ovarian findings in repeat-dose study,"rats; doses 600, 800 mg/kg/day",involution and a decrease in corpora lutea in ovaries
same,"Completed Suicide, %",[3]; 150 mg Once Daily (N = 475),(0.2) %
same,"Suicidal ideation, %",[3]; 150 mg Once Daily (N = 475),(0.2) %
same,"Depressed Mood, depression, depressive symptoms and or tearfulness, %",[3]; 150 mg Once Daily (N = 475),(2.7) %
same,"Mood altered, mood swings, %",[3]; 150 mg Once Daily (N = 475),(5.7) %
same,Mean Intensity score (1 = spotting to 4 = heavy),"[3]; 150 mg Once Daily, baseline 2.6",2.2
same,Mean bleeding/spotting days in prior 28 days,"[3]; 150 mg Once Daily, baseline 5.3",2.8 days
same,Discontinuations due to hot flush,[3]; 150 mg QD,0.8%
same,Discontinuations due to nausea,[3]; 150 mg QD,0.8%
same,Numeric Rating Scale (NRS) endometriosis pain scores,"[3]; 150 mg QD and 200 mg BID, Month 3 and Month 6",highly statistically (p<0.001) significant reduction in NRS scores compared to placebo
same,Percentage of patients with adverse reaction: Anxiety,"[3]; 150 mg QD, N = 475",3%
same,Percentage of patients with adverse reaction: Arthralgia,"[3]; 150 mg QD, N = 475",3%
same,Percentage of patients with adverse reaction: Insomnia,"[3]; 150 mg QD, N = 475",6%
same,Percentage of patients with adverse reaction: Nasopharyngitis,"[3]; 150 mg QD, N = 475",6%
same,Percentage of patients with adverse reaction: Sinusitis,"[3]; 150 mg QD, N = 475",5%
same,Percentage of patients with adverse reaction: Upper Respiratory Tract Infection,"[3]; 150 mg QD, N = 475",6%
same,Percentage of patients with adverse reaction: Hot Flush,"[3]; 150 mg QD, N = 475",23%
same,Percentage of patients with adverse reaction: Headache,"[3]; 150 mg QD, N = 475",17%
same,Percentage of patients with adverse reaction: Nausea,"[3]; 150 mg QD, N = 475",11%
same,Percentage of patients with adverse reaction: Amenorrhoea,"[3]; 150 mg QD, N = 475",4%
same,Mean increase from pretreatment baseline in HDL-C,[3]; 150 mg QD,2.24 mg/dL
same,Mean increase from pretreatment baseline in LDL-C,[3]; 150 mg QD,5.25 mg/dL
same,Mean increase from pretreatment baseline in triglycerides,[3]; 150 mg QD,0.42 mg/dL
same,Patients who discontinued therapy due to adverse reactions,[3]; 150 mg QD,5.5%
same,% Subjects with lumbar spine Z-score ≤−1.5,"[3]; 150 mg QD, on treatment Month 6, N 360",0.8%
same,Mean Percent Change from baseline in lumbar spine bone mineral density,"[3]; 150 mg QD, on treatment Month 6, N 360, 95% CI −0.79, −0.26",−0.52%
same,% Subjects with lumbar spine Z-score ≤−1.5,"[3]; 150 mg QD, on treatment Month 12, N 235",1.3%
same,Mean Percent Change from baseline in lumbar spine bone mineral density,"[3]; 150 mg QD, on treatment Month 12, N 235, 95% CI −1.29, −0.45",−0.87%
same,Estradiol level (suppression to),"[3]; 150 mg QD, partial suppression",approximately 50 pg/mL
same,Patients with Z-score below the normal lower bound of −2.0,[3]; 150 mg daily dose,no patient
same,Patients with asymptomatic elevations of serum ALT to at least 3-times the upper limit of the reference range,"[3]; 150 mg once daily, 1/450",0.2%
same,Incidence of amenorrhea (no bleeding or spotting in a 56-day interval),"[3]; 150 mg once daily, first six months of treatment, placebo less than 1%",6-17%
same,Incidence of amenorrhea (no bleeding or spotting in a 56-day interval),"[3]; 150 mg once daily, second 6 months of treatment",11-15%
same,Discontinuations due to hot flush,[3]; 200 mg BID,2.5%
same,Discontinuations due to nausea,[3]; 200 mg BID,1.5%
same,Percentage of patients with adverse reaction: Anxiety,"[3]; 200 mg BID, N = 477",5%
same,Percentage of patients with adverse reaction: Arthralgia,"[3]; 200 mg BID, N = 477",5%
same,Percentage of patients with adverse reaction: Insomnia,"[3]; 200 mg BID, N = 477",9%
same,Percentage of patients with adverse reaction: Nasopharyngitis,"[3]; 200 mg BID, N = 477",6%
same,Percentage of patients with adverse reaction: Sinusitis,"[3]; 200 mg BID, N = 477",6%
same,Percentage of patients with adverse reaction: Upper Respiratory Tract Infection,"[3]; 200 mg BID, N = 477",4%
same,Percentage of patients with adverse reaction: Hot Flush,"[3]; 200 mg BID, N = 477",45%
same,Percentage of patients with adverse reaction: Headache,"[3]; 200 mg BID, N = 477",20%
same,Percentage of patients with adverse reaction: Nausea,"[3]; 200 mg BID, N = 477",16%
same,Percentage of patients with adverse reaction: Amenorrhoea,"[3]; 200 mg BID, N = 477",7%
same,Mean increase from pretreatment baseline in HDL-C,[3]; 200 mg BID,4.16 mg/dL
same,Mean increase from pretreatment baseline in LDL-C,[3]; 200 mg BID,13.10 mg/dL
same,Mean increase from pretreatment baseline in triglycerides,[3]; 200 mg BID,11.08 mg/dL
same,Patients who discontinued therapy due to adverse reactions,[3]; 200 mg BID,9.6%
same,Percent change from baseline of averaged daily opioid pills (FIG. A-5),"[3]; 200 mg BID, compared with placebo",significant decrease from baseline in the percent change of averaged daily opioid pills at Months 3 through 6
same,Patients with Z-score below the normal lower bound of −2.0,[3]; 200 mg BID,less than 1%
same,Estradiol level (suppression to),"[3]; 200 mg BID, nearly full suppression",approximately 12 pg/mL
same,% Subjects with lumbar spine Z-score ≤−1.5,"[3]; 200 mg BID, on treatment Month 6, N 365",4.1%
same,Mean Percent Change from baseline in lumbar spine bone mineral density,"[3]; 200 mg BID, on treatment Month 6, N 365, 95% CI −2.81, −2.28",−2.54%
same,% Subjects with lumbar spine Z-score ≤−1.5,"[3]; 200 mg BID, on treatment Month 12, N 217",5.1%
same,Mean Percent Change from baseline in lumbar spine bone mineral density,"[3]; 200 mg BID, on treatment Month 12, N 217, 95% CI −4.19, −3.32",−3.76%
same,"Suicidal ideation, %",[3]; 200 mg Twice Daily (N = 477),(0.2) %
same,"Depressed Mood, depression, depressive symptoms and or tearfulness, %",[3]; 200 mg Twice Daily (N = 477),(6.1) %
same,"Mood altered, mood swings, %",[3]; 200 mg Twice Daily (N = 477),(5.2) %
same,Mean Intensity score (1 = spotting to 4 = heavy),"[3]; 200 mg Twice Daily, baseline 2.5",2.0
same,Mean bleeding/spotting days in prior 28 days,"[3]; 200 mg Twice Daily, baseline 5.7",0.8 days
same,Patients with asymptomatic elevations of serum ALT to at least 3-times the upper limit of the reference range,"[3]; 200 mg twice daily, 5/443",1.1%
same,Incidence of amenorrhea (no bleeding or spotting in a 56-day interval),"[3]; 200 mg twice daily, first six months of treatment, placebo less than 1%",13-52%
same,Incidence of amenorrhea (no bleeding or spotting in a 56-day interval),"[3]; 200 mg twice daily, second 6 months of treatment",46-57%
same,Percentage of days in which rescue opioid medication was taken,"[3]; 150 QD and 200 BID, pooled analysis, compared with placebo",significant reduction in the percentage of days in which rescue opioid medication was taken
same,Mean decreases from Baseline in dysmenorrhea scores,"[3]; both treatment groups (150 mg QD, 200 mg BID)",statistically significantly greater than placebo beginning at Month 1 and persisted through Month 6
same,BMD after stopping treatment,"[3]; both treatment groups, lumbar spine, total hip and femoral neck, post-treatment months 6 and 12",progressive recovery of BMD
same,Durability of improvement in extension studies EM-III and EM-IV,[3]; patients maintained on their dose,"durability of improvement in dysmenorrhea, NMPP and dyspareunia was demonstrated for a total of 12 months"
